# Laboratory results published in patent US20180271888A1, “COMPOSITIONS AND METHODS FOR PARKINSON'S DISEASE THERAPY” (priority 2017, published 2018).
# Read-outs that look alike come from different tables or passages of the source.
# Key:
# TH = TH expression in striatum after 6-OHDA lesioning; format: in vivo, mouse; conditions: 6-OHDA 4 mg/mL, 2 μL unilateral, lesioned vs unlesioned side
# Description: (§1) Protein samples of 50 lg ran on 10% sodium dodecyl sulfate-polyacrylamide gel electrophoresis gels and transferred onto polyvinylidine diflouride membranes using semi-dry transfer method (Trans turbo blot; BioRad Laboratories, Hercules, Calif., USA). Striatal samples from WT and P2X4R KO mice were made to run on the same gel and transferred onto the same membrane. Nonspecific binding was blocked by incubation in 5% non-fat dry milk, followed by incubation with primary antibodies overnight at 4° C. The antibodies used were rabbit anti-TH (1:5000), mouse anti-DAT (1:1000), rabbit anti-D2 receptor (1:1000), rabbit anti-DARPP-32 (1:1000) (Millipore), rabbit anti-D1 receptor (1:500; SantaCruz biotechnology, Santacruz, Calif., USA), mouse anti-total ERK 1/2 (1:1000), rabbit anti-total CREB (1:1000) (Cell Signaling Technology, Beverly, Mass., USA), mouse anti-β-actin (1:20 000; Sigma-Aldrich), and mouse anti-α-tubulin (1:10 000; Millipore). The antibodies for phospho proteins included rabbit antiphospho-Thr34-DARPP-32 (1:400; Millipore), rabbit anti-phospho-Ser133-CREB (1:500), rabbit anti-diphospho-Thr202/Tyr204-ERK 1/2 (1:500) (Cell Signaling Technology). Secondary antibodies included goat anti-mouse and goat anti-rabbit antibodies (1:10 000; BioRad Laboratories). […] Protein quantification was carried out by optical densitometry using ImageJ software (NIH, Bethesda, Md., USA). […]
# CREB = assay: Western immunoblotting of total and phosphorylated CREB in striatum after IVM; format: in vivo, mouse; conditions: effect of IVM treatment 5 mg/kg
# Description: (§2) The dorsal and ventral striata were dissected from P2X4R KO and WT mice following killing with CO2 asphyxiation. […] The dorsal and ventral striata were dissected out as per the neuroanatomical landmarks described in the mouse brain atlas (Franklin, B. J. and Paxinos, G. (2007) The Mouse Brain in Stereotaxic Coordinates. Elsevier Academic Press, Amsterdam). The brain tissues were homogenized in a buffer containing 50 mM Tris-HCl pH (8.0), 150 mM NaCl, 1 mM EDTA, 0.1% sodium dodecyl sulfate, 1/100 dilution proteinases inhibitor cocktail (Millipore, Temecula, Calif., USA), and protein content was determined using bicinchoninic acid assay kit (Thermo Scientific, Rockford, Ill., USA). Homogenates were treated with a cocktail of phosphatase inhibitors (1 mM sodium pyrophosphate, 10 mM sodium fluoride, 0.5 mM sodium orthovandate, 10 mM β-glycerol phosphate, 1 μM microcysteine LR) (Sigma-Aldrich) for detection of phosphoproteins.
# as §1, with “Millipore).” for “Millipore). The antibodies for phospho proteins included rabbit antiphospho-Thr34-DARPP-32 (1:400; Millipore), rabbit anti-phospho-Ser133-CREB (1:500), rabbit anti-diphospho-Thr202/Tyr204-ERK 1/2 (1:500) (Cell Signaling Technology). Secondary antibodies included goat anti-mouse and goat anti-rabbit antibodies (1:10 000; BioRad Laboratories).”
# (§3) For the western blotting analysis, the average of densitometry values of WT striatal samples was used to arbitrarily normalize WT samples to 1 and the P2X4R KO striatal samples were normalized by dividing each densitometry value by the average of WT samples. […] Normalized density of proteins was expressed as mean±SEM. Phosphorylation was calculated as ratio of normalized values of phosphorylated form to total form of protein. DA levels were expressed as ng/mg of protein content. […] Pharmacological studies for motor behavior and sensorimotor gating were analyzed by two-way repeated measures ANOVA with time/PPI intensity and genotype/treatment as within and between-subjects variability, respectively, followed by Bonferroni post hoc test for multiple comparisons. […]
# WT and P2X4R KO mice [1] = conditions: Bortolato et al. 2013, cited from earlier work
# ERK 1/2 = assay: Western immunoblotting of total and phosphorylated ERK 1/2 in striatum after IVM; format: in vivo, mouse
# Description: as §2
# as §1, with “Millipore).” for “Millipore). The antibodies for phospho proteins included rabbit antiphospho-Thr34-DARPP-32 (1:400; Millipore), rabbit anti-phospho-Ser133-CREB (1:500), rabbit anti-diphospho-Thr202/Tyr204-ERK 1/2 (1:500) (Cell Signaling Technology). Secondary antibodies included goat anti-mouse and goat anti-rabbit antibodies (1:10 000; BioRad Laboratories).”
# as §3
# DARPP-32 = assay: Western immunoblotting of total and phosphorylated DARPP-32 in striatum after IVM; format: in vivo, mouse
# Description: as §2
# Protein samples of 50 lg ran on 10% sodium dodecyl sulfate-polyacrylamide gel electrophoresis gels and transferred onto polyvinylidine diflouride membranes using semi-dry transfer method (Trans turbo blot; BioRad Laboratories, Hercules, Calif., USA). Striatal samples from WT and P2X4R KO mice were made to run on the same gel and transferred onto the same membrane. Nonspecific binding was blocked by incubation in 5% non-fat dry milk, followed by incubation with primary antibodies overnight at 4° C. The antibodies used were rabbit anti-TH (1:5000), mouse anti-DAT (1:1000), rabbit anti-D2 receptor (1:1000), rabbit anti-DARPP-32 (1:1000) (Millipore), rabbit anti-D1 receptor (1:500; SantaCruz biotechnology, Santacruz, Calif., USA), mouse anti-total ERK 1/2 (1:1000), rabbit anti-total CREB (1:1000) (Cell Signaling Technology, Beverly, Mass., USA), mouse anti-β-actin (1:20 000; Sigma-Aldrich), and mouse anti-α-tubulin (1:10 000; Millipore). The antibodies for phospho proteins included rabbit antiphospho-Thr34-DARPP-32 (1:400; Millipore), rabbit anti-phospho-Ser133-CREB (1:500), rabbit anti-diphospho-Thr202/Tyr204-ERK 1/2 (1:500) (Cell Signaling Technology). Secondary antibodies included goat anti-mouse and goat anti-rabbit antibodies (1:10 000; BioRad Laboratories). Bands were visualized using chemiluminescence method (Clarity western plus enhanced chemiluminescence substrate; BioRad Laboratories) followed by exposure to HyBlot autoradiography films (Denville Scientific, Metuchen, N.J., USA). Protein quantification was carried out by optical densitometry using ImageJ software (NIH, Bethesda, Md., USA). Protein densities were normalized to β-actin or α-tubulin levels.
# as §3
# [2] = tested on: 6-OHDA lesioned WT and P2X4R KO mice; assay: L-DOPA-induced rotational behavior in the 6-OHDA model of DA depletion (Example 1); format: in vivo, mouse
# Description: Mice were treated with desipramine hydrochloride (25 mg/kg, i.p.) (Sigma-Aldrich) 30 min prior to surgery to prevent concurrent damage of noradrenergic pathways by 6-OHDA. Mice were anesthetized with avertin ([…], i.p.) and placed in the stereotaxic apparatus. Two μL of freshly prepared 6-OHDA bromide salt (4 mg/mL in 0.2% ascorbic acid and 0.9% saline; Sigma-Aldrich) was unilaterally infused into left median forebrain bundle (from Bregma point: 1.2 mm posterior, 1.1 mm lateral, 5 mm ventral) (Franklin, B. J. and Paxinos, G. (2007) The Mouse Brain in Stereotaxic Coordinates. Elsevier Academic Press, Amsterdam) at a rate of 0.5 μL/min using a 10 μL Hamilton syringe and a microlitre syringe pump. The injection cannula was left in place for 3-5 min to prevent reflux and ensure complete absorption. Post-operative procedures involved daily subcutaneous (s.c.) injections with sucrose (5% w/v in saline) and warming on a heating pad for 2 weeks.
# Mice were subjected to behavioral testing 3 weeks after 6-OHDA lesioning surgery. Mice were placed in a plastic cylinder (318 mm in diameter) with a video camera mounted above it. Baseline rotational behavior was established by saline injections which causes the mouse to rotate toward the lesioned side with lesser DA activity (ipsilateral rotations). L-DOPA (5 mg/kg, s.c.) was administered 5 min prior to behavioral testing and the number of contralateral and ipsilateral rotations were counted in every 10-minute interval for a total period of 90 min.
# For the western blotting analysis, the average of densitometry values of WT striatal samples was used to arbitrarily normalize WT samples to 1 and the P2X4R KO striatal samples were normalized by dividing each densitometry value by the average of WT samples. Normalization of the two genotypes was done within the same membrane and presented as fold change of P2X4R KO versus WT in that membrane. For D1, D2, DARPP-32, ERK 1/2, and CREB immunoblotting; WT and P2X4R KO mice were generated in separate cohorts. The normalization of P2X4R KO to WT samples was done within the same cohort followed by combining data from two cohorts for analyses. […] Normalized density of proteins was expressed as mean±SEM. Phosphorylation was calculated as ratio of normalized values of phosphorylated form to total form of protein. DA levels were expressed as ng/mg of protein content. Unpaired Student t-test was used for analyzing the differences in protein densities and DA levels between WT and P2X4R KO groups. […] Pharmacological studies for motor behavior and sensorimotor gating were analyzed by two-way repeated measures ANOVA with time/PPI intensity and genotype/treatment as within and between-subjects variability, respectively, followed by Bonferroni post hoc test for multiple comparisons. Significance was set at p<0.05. All data were analyzed using GraphPad Prism software (San Diego, Calif., USA).
# [3] = cited from earlier work
# WT and P2X4R KO mice [4] = assay: Prepulse inhibition (PPI) of acoustic startle reflex; format: in vivo, mouse
# Description: Acoustic startle reflex and PPI were tested as previously described (Wyatt, L. R. et al. (2013) Neuropsychopharmacology 38:1993-2002). The apparatus used for detection of startle reflex (San Diego Instruments, San Diego, Calif., USA) consisted of a standard cage placed in sound attenuated chambers with fan ventilation. Each cage consisted of a Plexiglass cylinder of 3 cm diameter, mounted on piezoelectric accelerometric platform connected to an analog-digital converter. Background noise and acoustic bursts were conveyed by two separate speakers, each one oriented appropriately so as to produce a variation in sound within 1 dB across the startle cage. Both speakers and startle cages were connected to the main PC, which detected and analyzed all chamber variables with Startle software (San Diego Instruments). Before each testing session, acoustic stimuli were calibrated via a digital sound level meter.
# During the baseline session, mice were exposed to background noise of 70 dB and, after an acclimatization period of 5 min, were presented with 12 40 ms trials of 115 dB interposed with three trials of a 82 dB pre-stimulus preceding the 115 dB by 100 ms. […] Delta PPI (APPI) was calculated as mean startle amplitude for pulse alone trials—(mean startle amplitude for prepulse trial). […]
# as §3
# [5] = ventral striatum, effect of IVM treatment 5 mg/kg
# [6] = ventral striatum, main effect of IVM treatment 5 mg/kg, treatment×genotype interaction significant (p<0.05)
compound,measurement,setting,value
"NCCc1cc(O)c(O)cc1O [6-OHDA, 6-hydroxydopamine]",reduced TH expression in the striatum,TH; P2X4R KO mice,96.3%
same,reduced TH expression in the striatum,TH; WT mice,95.7%
"CC[C@H](C)[C@H]1O[C@]2(CC[C@@H]1C)C[C@@H]1C[C@@H](C/C=C(\C)[C@@H](O[C@H]3C[C@H](OC)[C@@H](O[C@H]4C[C@H](OC)[C@@H](O)[C@H](C)O4)[C@H](C)O3)[C@@H](C)/C=C/C=C3\CO[C@@H]4[C@H](O)C(C)=C[C@@H](C(=O)O1)[C@]34O)O2 [IVM, ivermectin]",CREB phosphorylation,CREB; dorsal striatum,no significant effect
same,total CREB levels,CREB; dorsal striatum,no significant effect
same,total CREB levels,CREB; ventral striatum,no significant effect
same,CREB phosphorylation,"CREB; ventral striatum, interaction trended toward significance",no significant effect
same,PPI (effect of IVM),WT and P2X4R KO mice [1]; P2X4R KO mice,attenuated response
same,PPI (effect of IVM),WT and P2X4R KO mice [1]; WT C57BL/6J mice,PPI disruption
same,ERK 1/2 phosphorylation,"ERK 1/2; dorsal striatum, IVM 5 mg/kg, both genotypes (independent of P2X4R function)",increased
same,total ERK 1/2 levels,"ERK 1/2; dorsal striatum, main effect of IVM treatment, treatment×genotype interaction significant",no significant effect
same,ERK 1/2 phosphorylation,ERK 1/2; [5],no significant effect
same,total ERK 1/2 levels,ERK 1/2; [5],no significant effect
same,DARPP-32 phosphorylation,"DARPP-32; dorsal striatum, P2X4R KO mice, IVM 5 mg/kg i.p., 8 h post-drug",did not increase
same,DARPP-32 phosphorylation,"DARPP-32; dorsal striatum, WT mice, IVM 5 mg/kg i.p., 8 h post-drug, vs vehicle, Bonferroni p<0.05",significant increase
same,total DARPP-32 levels,"DARPP-32; dorsal striatum, main effect of IVM treatment (5 mg/kg i.p.), treatment×genotype interaction significant",no significant effect
same,DARPP-32 phosphorylation,DARPP-32; [6],no significant effect
same,total DARPP-32 levels,DARPP-32; [6],no significant effect
same,L-DOPA induced motor behavior (contralateral rotations),"[2]; 6-OHDA P2X4R KO mice, IVM 5 mg/kg + L-DOPA 5 mg/kg vs L-DOPA alone, during the 5-15 min interval",significant increase
same,number of L-DOPA-induced rotations (contralateral),"[2]; 6-OHDA WT mice, IVM 5 mg/kg i.p. 8 h prior + L-DOPA 5 mg/kg s.c. vs L-DOPA alone, significant 5-65 min",significantly increased
same,rotations induced by IVM alone (ipsilateral),"[2]; 6-OHDA WT mice, IVM 5 mg/kg i.p. 8 h prior, average for 2 hours, SEM ±2, significant vs sham controls",12 rotations
"C[C@@](Cc1ccc(O)c(O)c1)(NN)C(=O)O.O [Carbidopa, N-amino-α-methyl-3-hydroxy-L-tyrosine monohydrate]",solubility in water,[3],slightly soluble
"N[C@@H](Cc1ccc(O)c(O)c1)C(=O)O [L-DOPA, L-3,4-didhydrophenylalanine]",rotational behavior with L-DOPA treatment,"[2]; L-DOPA 5 mg/kg s.c., 6-OHDA lesioned WT and P2X4R KO mice",exhibited contralateral rotations
same,"L-DOPA-induced contralateral turns, P2X4R KO compared to WT mice","[2]; L-DOPA 5 mg/kg, significant during the 45-55 min interval",significantly fewer
CCN1CCC[C@H]1CNC(=O)c1c(O)c(Cl)cc(Cl)c1OC [raclopride],PPI of acoustic startle reflex,"WT and P2X4R KO mice [4]; P2X4R KO mice vs saline, SCH-23390 1 mg/kg i.p. or raclopride 3 mg/kg i.p., 10 min prior, significant at PPI 6 and PPI 12",significantly enhanced
same,startle amplitude,"WT and P2X4R KO mice [4]; P2X4R KO mice, SCH-23390 1 mg/kg or raclopride 3 mg/kg",without any changes
same,PPI function,"WT and P2X4R KO mice [4]; WT mice, SCH-23390 1 mg/kg or raclopride 3 mg/kg i.p.",no significant changes
